The values below come from ChEMBL document CHEMBL3507680, “University of Dundee, Gates Library screen for HepG2 cell viability”.

The structures appear in SMILES notation.

The nature of this data set: Human HepG2 cell viability assay in 384 well format. Also on record: dose 125 nL, time 70.5 hour; cytotoxicity at 70.5 h: concentration not given beside the values. Type of data set: toxicity, cell-based. To be noted: HepG2 cells, read-out: Inhibition.
In the case of `CS(=O)(=O)Cc1nc(CNc2c(F)cc(F)cc2F)cs1`, the cytotoxicity at 70.5 h is -2.82%.
Then `CS(=O)(=O)Cc1nc(CNc2ccc(F)c(F)c2)cs1`, with -6.66%.
For `Cc1ccc2cc(C(=O)N3CCCCC3c3nc[nH]n3)ccc2n1` (centres undefined) the value was 11.1%; for `NS(=O)(=O)CC1CCN(c2ncccc2C(F)(F)F)CC1`, 7.95%.
Then `O=C(N1CCC(Oc2ccncc2)C1)C1(c2ccccc2F)CC1` (centres undefined), with -16.9%; and `CCCc1nn(C2CCN(C3CC3)C2=O)c(=O)o1` (centres undefined), with -5.48%.
Turning to `CCCc1nn(C2CCCN(C(C)C)C2=O)c(=O)o1` (centres undefined), the cytotoxicity at 70.5 h was -9.22%.
For `Cc1noc(CNc2ccccc2C(=O)N2CCCC(O)C2)n1` (centres undefined) the value was 5.5%; for `Cc1n[nH]c(C2CN(CCCOc3cccc(Cl)c3)CCO2)n1` (centres undefined), -14.2%.
For the compound `CC(=O)N1CCC(CCNC(C)Cc2ccc(F)cc2)CC1` (centres undefined), the cytotoxicity at 70.5 h is -13.1%.
Then `CC(CCSc1ccccc1)N1CCN(C(=O)c2cccs2)CC1` (centres undefined), with 35.4%; and `CC(CCSc1ccccc1)N1CCN(C(=O)c2ccccc2O)CC1` (centres undefined), with 36.1%.
For `CNC(=O)C1CCN(Cc2cc3c(cc2O)CCC3)CC1` the value was 27%; for `c1ccn2cc(CN3CCCC(c4ccn[nH]4)C3)nc2c1` (centres undefined), 25.3%; for `COC(=O)NCC(=O)NC1CC(C)(C)Cc2oc(C)cc21` (centres undefined), 1.57%.
For the compound `CCNC(=O)N(Cc1cccc(OC)c1)C1CCC(O)CC1` (centres undefined), the cytotoxicity at 70.5 h was determined as 2.57%.
For `CC(C)(C)c1cc(NC(=O)CN2CCCC2Cn2cncn2)on1` (centres undefined) the value was 21.1%; for `CCN(C(=O)c1ccc(-c2ccccc2)nc1C)C1CC(=O)NC1=O` (centres undefined), -5.68%.
Then `CC(C)(C)NS(=O)(=O)c1ccccc1CNCc1cccc(O)c1`, with 3.89%; and `CC(C)NS(=O)(=O)c1ccccc1CNCc1cccc(O)c1`, with -3.47%.
Then `O=C(c1ncoc1C1CCCO1)N1CCCC2(CCCCC2)C1` (centres undefined), with -2.37%; and `Cc1n[nH]c(C2CN(C(=O)c3cc(C)sc3C)CCO2)n1` (centres undefined), with -6.3%; and `CCC(NC(=O)Nc1ccc(OC)c(C)c1)c1ccncc1` (centres undefined), with -4.85%.
For `O=C(NC1CC1)NC(c1ccc(F)cc1)C1CC1` (centres undefined), the cytotoxicity at 70.5 h was -7.03%.
Then `O=C(NCCCOC1CCOC1)NC(C1CC1)C1CC1` (centres undefined), with 5.31%.
For `CCC(c1ccccc1)N1CCN(C(=O)c2cc(C(N)=O)c[nH]2)CC1` (centres undefined) the value was -4.98%; for `O=C(Nc1cccn(CC(F)(F)F)c1=O)c1ccc(F)cc1`, 19.4%; for `Cc1ccc(C(C)(O)CNC(=O)c2sccc2Br)o1` (centres undefined), 4.05%.
Then `O=C(Nc1nncs1)N(Cc1cccc(O)c1)C1CC1`, with -4.79%.
Regarding `Cc1cccn2cc(CN3CCCC(O)C3)nc12` (centres undefined), the cytotoxicity at 70.5 h was -2.97%.
For `CC(C)OCCN1CCN(C(=O)c2cccc(-n3cccn3)n2)CC1` the value was -0.664%.
For the compound `COCCN(C)c1ccc(NCc2cscn2)nc1`, the cytotoxicity at 70.5 h was found to be 24.9%.
For `CCn1cc(CNc2ccc(N(C)CCOC)cn2)cn1` the value was -2.51%.
Then `CCC1CN(c2cnn(C)c(=O)c2Cl)CCO1` (centres undefined), with 5.82%.
For `Cc1ncsc1CCN1CCN(C(=O)c2ccc(=O)[nH]c2)CC1`, the cytotoxicity at 70.5 h is -1.09%.
For `O=C(NCCn1ccnc1)c1cccc(Br)c1` the value was -13%.
Then `O=C(NCCn1ccnc1)c1cc(Br)c[nH]1`, with -8.18%; and `O=C(NCCn1ccnc1)c1cc(F)cc(Br)c1`, with -8.01%; and `Cc1nc(C2(NCc3ccc(C#N)cc3F)CCCCC2)no1`, with -1.37%.
Then `CNC(=O)c1ccc(=O)n(Cc2csc(N(C)C(C)=O)n2)c1`, with -2.61%; and `CC(C)(C)CNS(=O)(=O)C1CS(=O)(=O)c2ccccc21` (centres undefined), with 16.6%.
Take `O=C(NCCn1ccnc1)c1csc(Br)c1`: the cytotoxicity at 70.5 h is 16.5%.
`N#CCCCS(=O)(=O)N1CCC(CSc2ccccc2)C1` (centres undefined): the cytotoxicity at 70.5 h is -9.53%.
Then `O=C(NC1CCCN(c2ccc(OC(F)F)cc2)C1)c1ccon1` (centres undefined), with -1.24%; and `CSc1ccc(CNc2ccccc2CN2CCC(O)CC2)cc1`, with -3.71%; and `O=C(Nc1ccccc1Cn1cncn1)C1CCN(C2CCCCC2)C1` (centres undefined), with -5.06%.
On to `O=C(NC1CCCN(c2ccc(OC(F)F)cc2)C1)c1cc[nH]n1` (centres undefined), for which the cytotoxicity at 70.5 h was -11.9%.
For `O=S(=O)(CCO)Cc1ccc(OC(F)F)cc1` the value was -5.07%.
Then `Cn1cc(C#N)cc1C(=O)NC1(C#N)CCSCC1`, with -4.89%; and `CNC(=O)Cc1ccccc1NC(=O)C1CCN(C2CCCCC2)C1` (centres undefined), with -7.23%; and `Cc1cc(C(=O)NC2(C#N)CCSCC2)n(C)n1`, with -5.82%.
For `CC(C)c1nc2c(n1C)CCN(CC(=O)NCc1ccccn1)C2` the value was -0.491%; for `COc1cc(OC)cc(C2(O)CCN(Cc3nc(C)c(C)o3)CC2)c1`, 0.268%; for `Cc1ccc(CN(C(=O)NCC(c2cccs2)N(C)C)C2CC2)o1` (centres undefined), -5.44%.
Take `COc1ccccc1C(=O)N1CCN(CCc2scnc2C)CC1`: the cytotoxicity at 70.5 h was -7.23%.
Then `Cc1cnc(CNc2ccccc2CN(C)C(=O)c2cccs2)o1`, with 18.4%; and `CC1CCN(C(=O)C2CCN(c3ccc(Cl)cc3C#N)CC2)CC1`, with -6.44%; and `Cc1ccc(OCc2nc(CNCCn3cccn3)cs2)cc1`, with -2.86%.
For `CC(C)COCCC(=O)Nc1cccnc1-n1cncn1` the value was -6.91%; for `COCCNC(=O)N1CCCC(COc2ccccc2)C1` (centres undefined), 1.11%; for `Cc1ccc2nc(CNc3ccccc3C(=O)NC3CC3)cn2c1`, -4.35%.
In the case of `COc1ccc(C(=O)NCCN(C)C)c(I)c1`, the cytotoxicity at 70.5 h was determined as 2.46%.
With `COc1ccc(C(=O)NCCC(N)=O)c(I)c1`, the cytotoxicity at 70.5 h came to 24.4%.
For `CC(CO)(NC(=O)NCCc1ccc(Br)s1)C1CC1` (centres undefined) the value was -11%; for `Cc1cc(CNC(=O)NC(C)(CO)C2CC2)c(C)s1` (centres undefined), -5.03%.
Turning to `NC(=O)CN(C(=O)C1Cc2cc(Cl)ccc2O1)C1CCCC1` (centres undefined), the cytotoxicity at 70.5 h is 24.1%.
Then `Cc1csc(C2(NCc3csc(C4CC4)n3)CCCC2)n1`, with -9.17%.
As to `c1csc(C2(NCc3csc(C4CC4)n3)CCCC2)n1`, the cytotoxicity at 70.5 h is -7.26%.
Then `Cc1noc(C)c1CCC(=O)N1CCn2cccc2C1C` (centres undefined), with -0.947%.
For `COCCCS(=O)(=O)N(Cc1cccc(C)c1)Cc1ccccn1`, the cytotoxicity at 70.5 h amounted to 8.58%.
Then `CC(C)CCN1CCN(C(=O)c2c[nH]nn2)CC1`, with 14%; and `CCN(CC)S(=O)(=O)N(Cc1ccccn1)Cc1ccccc1C`, with 43.2%; and `CCN(CC1CCOC1)C(=O)c1ccn(-c2ccc(OC)cc2)n1` (centres undefined), with -3.5%.
Then `COc1ccccc1CN(CC1CCCO1)C(=O)c1scnc1C` (centres undefined), with -12.6%; and `Cc1cccnc1NC(=O)NC(CCO)C(C)(C)C` (centres undefined), with -2.8%; and `CCN(CC1CCOC1)C(=O)c1cn2ccc(C)cc2n1` (centres undefined), with -16.3%.
Then `CC(C)(C)c1nc(CNC2CCN(S(C)(=O)=O)CC2)cs1`, with -8.36%; and `CCc1nc(CNC2CCN(S(C)(=O)=O)CC2)cs1`, with -0.997%.
As for `CC1CN(C)CCN1C(=O)Nc1nc(-c2ccco2)cs1` (centres undefined), the cytotoxicity at 70.5 h was -13.7%.
For the compound `CC1CN(C)CCN1C(=O)Nc1nc(-c2cccn2C)cs1` (centres undefined), the cytotoxicity at 70.5 h was -13.9%.
Then `Cn1cnnc1CCNC(=O)c1cnn(Cc2ccccc2)c1`, with -14.9%; and `CCC1CN(C)c2ccccc2CN1C(=O)Nc1ccc(C)cc1` (centres undefined), with -2.3%.
For `COc1ccc(CNc2cccnc2-n2cccn2)cc1OC` the value was -14.2%.
On to `COc1ccc(C)cc1-n1ccc(C(=O)NCC2CCCOC2)n1` (centres undefined), for which the cytotoxicity at 70.5 h was -11.7%.
For `COc1cc(CN(C)CCc2ccncc2)c(SC)cc1OC` the value was -7.73%.
Then `COc1cc(CN(C)Cc2ccncc2)c(SC)cc1OC`, with -10.7%.
Then `CC(C)CCN1CCN(C(=O)c2cnccn2)CC1`, with 18.6%.
Take `CCN(CC1CCOC1)C(=O)c1ccn(-c2cc(C)ccc2OC)n1` (centres undefined): the cytotoxicity at 70.5 h was -2.72%.
As for `CN(C)c1ccc(CN(CC2CCCO2)C(=O)c2csnn2)cc1` (centres undefined), the cytotoxicity at 70.5 h is -14.8%.
As to `CCN(CC)S(=O)(=O)c1ccc(CNc2cc(C)nc(C)n2)cc1`, the cytotoxicity at 70.5 h was -12.1%.
For `Fc1ccc(OCCNC2CCN(Cc3ccccn3)CC2)c(F)c1` the value was 20.2%; for `N#Cc1ccc(NCC(O)c2ccco2)c(C(F)(F)F)c1` (centres undefined), -6.87%; for `CN(CCN1CCOC1=O)CC(=O)Nc1ccc(Cl)c(C(F)(F)F)c1`, -22%.
For `COCC(C)NC(=O)CSc1ccc(F)c(Cl)c1` (centres undefined) the value was 12%; for `Cc1ccc(C(CNCc2cccc3c2OCO3)N2CCOCC2)o1` (centres undefined), -17%.
Then `CC(=O)N1CCC(C(=O)NCc2ncc(-c3ccccc3)o2)CC1`, with -14.2%; and `O=C(NCc1ncc(-c2ccccc2)o1)NC1CCC(O)CC1` (centres undefined), with -7.39%; and `Clc1snnc1CN1CCN(c2nccs2)CC1`, with -13.7%.
For `CC(CNC(=O)c1cn(-c2ccccc2)nn1)Cn1cccn1` (centres undefined), the cytotoxicity at 70.5 h stood at 13.9%.
Turning to `Cc1ccc(-n2cc(C(=O)NCC(C)Cn3cccn3)nn2)cc1` (centres undefined), the cytotoxicity at 70.5 h was -14.5%.
Then `CN(CCC#N)C(=O)Cn1nnnc1C(C)(C)C`, with -16.8%; and `CS(=O)(=O)CCC(=O)NC1(c2cccc(C(F)(F)F)c2)CCC1`, with -24.7%.
For the compound `Cc1ccnc(NC(=O)C2CCN(CCCc3cn[nH]c3)CC2)c1`, the cytotoxicity at 70.5 h is -14.2%.
Then `CCC(C(=O)Nc1ccc(-c2nc(C)n[nH]2)cc1)N1CCCC1=O` (centres undefined), with -9.81%.
